Data from patent US10844019B2, “1-phenyl-3-carbamoyl urea compound, and use thereof” (Sumitomo Chemical Company, Limited, priority 2016, dated 2020).

Tested on: cucumber phytophthora blight fungi (Phytophthora capsici)
Assay: Test for controlling cucumber phytophthora blight fungi (growth in PDB medium, absorbance at 600 nm)
Type: cell-based
Conditions: 4.5 mg in 100 μL dimethyl sulfoxide, 1 μL of it in 150 μL PDB medium with zoospores, 27° C., three days, Efficacy=100×(X−Y)/X
Description: Four point five (4.5) milligrams of the present compound was diluted with 100 μL of dimethyl sulfoxide. One (1) μL portion of the diluted liquid was dispensed into a titer plate (96 wells), and thereto was then dispensed 150 μL of a potato dextrose broth medium (PDB medium) containing zoospores of cucumber phytophthora blight fungi (Phytophthora capsici). This plate was cultured at 27° C. for three days, thereby allowing the cucumber phytophthora blight fungi to undergo proliferation, and the absorbance at 600 nm of each well of the titer plate was then measured to determine a degree of growth of the cucumber phytophthora blight fungi. The efficacy was calculated from the determined degree of growth by the below-mentioned “Equation 1”. As a result, the efficacy of the Present compound was 80% or more. Efficacy=100×(X−Y)/X “Equation 1” where X: Degree of fungal growth in non-treated area Y: Degree of fungal growth in treated area
In the test example, a non-treated area means an area in which a test was conducted in the same manner, except that dimethyl sulfoxide was dispensed in place of the present compound diluted with dimethyl sulfoxide.

Row | Compound | Efficacy
1 | CCOC(=O)COc1ncccc1Oc1cc(NC(C)=O)c(F)cc1Cl [N-[4-chloro-2-fluoro-5-{2-(ethoxycarbonyl)methoxy-3-pyridyloxy}phenyl]acetamide] | less than 50%
2 | CCOC(=O)COc1ncccc1Oc1cc(NC(=O)NC(N)=O)c(F)cc1Cl [Present compound] | ≥ 80%
